Assay results reported in patent US20130065962A1, “Compounds For Use In The Treatment Of Diseases” (INOXIA LIFESCIENCES GMBH, priority 2010, published 2013).
pIC50: −log10 of the molar value. Like-named read-outs stand apart in the source and are kept apart here.

What was measured:
Format in all cases: biochemical
[1] = biological target: T1, eosinophil peroxidase (EPO) (Homo sapiens, UniProt P11678); assay: EPO bromination activity, monochlorodimedon (MCD) assay
T1 construct: 20 nM of EPO
T1 sequence (P11678 140-715): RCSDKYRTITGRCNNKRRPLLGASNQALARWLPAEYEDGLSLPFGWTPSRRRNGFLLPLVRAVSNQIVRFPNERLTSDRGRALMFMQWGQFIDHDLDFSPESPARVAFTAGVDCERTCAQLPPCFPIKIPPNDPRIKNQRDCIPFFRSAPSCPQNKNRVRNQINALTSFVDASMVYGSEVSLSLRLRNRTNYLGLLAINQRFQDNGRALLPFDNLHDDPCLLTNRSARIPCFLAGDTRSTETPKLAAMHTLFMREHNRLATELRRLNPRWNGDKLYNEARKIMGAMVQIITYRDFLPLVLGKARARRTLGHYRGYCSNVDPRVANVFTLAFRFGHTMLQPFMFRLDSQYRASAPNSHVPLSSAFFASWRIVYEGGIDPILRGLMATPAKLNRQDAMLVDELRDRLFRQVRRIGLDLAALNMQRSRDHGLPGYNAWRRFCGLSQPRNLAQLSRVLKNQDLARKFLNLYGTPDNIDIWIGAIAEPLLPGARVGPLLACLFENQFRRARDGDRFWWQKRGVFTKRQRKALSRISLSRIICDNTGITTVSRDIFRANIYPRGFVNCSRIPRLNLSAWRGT
Protocol: In order to test to what extent the substances according to the invention are able to inhibit EPO, the substances were tested for their inhibitory potential. […] In that, IC50 is that inhibitor concentration, which is required to inhibit an enzyme, here EPO, by 50%. This concentration is determined UV/Vis spectrophotometrically at 290 nm in the steady-state with a monochlorodimedon (MCD) assay.
Eosinophil peroxidase forms a multiplicity of different enzyme intermediates and is able to catalyze a high number of redox reactions. The physiological role of EPO is the oxidation of bromide or thiocyanate, respectively, to hypobromous acid or hypothiocyanate, respectively (also called halogenation cycle). And it is exactly this reaction that has to be inhibited. In the presence of phenolic substances, however, the enzyme can also undergo the so-called peroxidase cycle.
In order to determine the properties of the substances according to the invention to be inhibited, a method was used, in which the bromination activity is examined.
The extent of inhibition of the physiological bromide oxidation was photometrically determined using monochlorodimedon. The halogenation rate (initial inclination of the curve at 290 nm) with inhibitor was related to a blind value (without inhibitor), and therefrom the inactivation rate (in %) was determined. This was entered into a diagram (y-axis) opposite the inhibitor concentration (x-axis), and from the hyperbolic fit of the curve, the IC50 value for each inhibitor was determined.
100 mM of phosphate buffer, pH 7.0
100 μM of monochlorodimedon

myeloperoxidase (MPO) [2] = biological target: T2, myeloperoxidase (MPO) (Homo sapiens, UniProt P05164); assay: MPO + Cl halogenation inhibition (MCD assay); details: chloride as substrate
T2 sequence (P05164 49-745): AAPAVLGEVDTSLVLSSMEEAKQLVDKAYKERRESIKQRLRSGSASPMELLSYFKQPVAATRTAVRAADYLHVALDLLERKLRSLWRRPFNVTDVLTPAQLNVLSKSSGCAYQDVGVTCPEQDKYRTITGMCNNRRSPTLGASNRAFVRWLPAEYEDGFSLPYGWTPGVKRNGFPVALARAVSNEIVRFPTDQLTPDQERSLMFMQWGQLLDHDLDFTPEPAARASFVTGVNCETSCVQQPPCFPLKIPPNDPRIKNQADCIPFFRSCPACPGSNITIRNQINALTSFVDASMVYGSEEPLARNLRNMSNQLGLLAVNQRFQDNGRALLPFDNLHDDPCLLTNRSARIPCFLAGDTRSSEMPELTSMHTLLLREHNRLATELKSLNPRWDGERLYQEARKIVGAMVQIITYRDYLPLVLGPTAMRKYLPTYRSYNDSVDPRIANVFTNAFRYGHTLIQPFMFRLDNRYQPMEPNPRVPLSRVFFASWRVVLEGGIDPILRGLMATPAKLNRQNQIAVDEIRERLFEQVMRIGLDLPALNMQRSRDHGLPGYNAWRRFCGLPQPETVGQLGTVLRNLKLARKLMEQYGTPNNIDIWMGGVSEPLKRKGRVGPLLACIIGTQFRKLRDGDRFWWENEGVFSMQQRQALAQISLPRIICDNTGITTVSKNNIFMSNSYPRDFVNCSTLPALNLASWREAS

myeloperoxidase (MPO) [3] = biological target: T2, myeloperoxidase (MPO); assay: MPO + Br halogenation inhibition (MCD assay); details: bromide as substrate
lactoperoxidase (LPO) = lactoperoxidase (LPO) (UniProt P80025); assay: LPO + Br halogenation inhibition (MCD assay); details: bromide as substrate
[4] = Example 2, tests performed as in Example 1, read-out: IC50 value (EPO)
[5] = Example 3, same protocol as Example 1, read-out: IC50 EPO/Br
[6] = bromide oxidation, MCD assay at 290 nm, 100 mM bromide, 20 nM EPO, pH 7.0, read-out: IC50 EPO + Br

pIC50 [1, 4]	pIC50 [1, 5]	pIC50 [1, 6]	pIC50 (myeloperoxidase (MPO) [2])	pIC50 (myeloperoxidase (MPO) [3])	pIC50 (lactoperoxidase (LPO))	fold potential relative to compound (6) (EPO IC50) ([1]; compound (3) compared with non-halogenated compound (6))	Compound
	5.41						NNC(=O)COc1ccccc1Br [PD17, 2-(2-bromophenoxy)acetohydrazide]
	5.51						NNC(=O)CCc1ccccc1O [PD20, 3-(2-hydroxyphenyl)propanohydrazide]
	5.92						NNC(=O)CSc1ccc(Cl)cc1 [PD06, 2-[(4-chlorophenyl)sulfanyl]acetohydrazide]
	6.70						O=C(O)CNc1ccc(Cl)cc1 [PD02, 2-[(4-chlorophenyl)amino]acetic acid]
	6.00						O=C(O)CNc1ccccc1F [PD01, N-(2-fluorophenyl)glycin]
	5.57						NNC(=O)COc1ccc(F)cc1 [PD09, 2-(4-fluorophenoxy)acetohydrazide]

More lines, now with the values behind:

Compound	pIC50 [1, 4]	pIC50 [1, 5]	pIC50 [1, 6]	pIC50 (myeloperoxidase (MPO) [2])	pIC50 (myeloperoxidase (MPO) [3])	pIC50 (lactoperoxidase (LPO))	fold potential relative to compound (6) (EPO IC50) ([1]; compound (3) compared with non-halogenated compound (6))
CC(C)NNC(=O)c1ccncc1 [iproniazide, N′-isopropylisonicotinohydrazide, reference compound]	< 3.30						
Cc1ccc(NCC(=O)NN)cc1 [(8), 4-methyl-phenylaminoethane-hydrazide]			5.64	4.49	4.53	5.56	
NNC(=O)c1ccncc1 [isoniazide, pyridine-4-carbohydrazide, reference compound]	5.22						
NNC(=O)CNc1cccc(Br)c1 [(5), 3-bromo-phenylaminoethane-hydrazide]			7.77	5.43	5.80	7.40	
NNC(=O)CNc1ccccc1 [Compound (6), phenylaminoethane-hydrazide]			5.64	4.34	4.07	5.30	
NNC(=O)CNc1ccccc1F [(3), 2-fluoro-phenylaminoethane-hydrazide]			8.05	5.06	5.72	7.00	> 200 fold
NNC(=O)CNc1ccc(Cl)cc1 [(2), 4-chloro-phenylaminoethane-hydrazide]			7.62	5.71	5.92	7.52	
NNC(=O)CNc1ccc(F)cc1 [(1), 4-fluoro-phenylaminoethane-hydrazide]			6.62	5.27	5.39	6.27	
NNC(=O)CNc1ccc(F)cc1F [(7), 2,4-di-fluoro-phenylaminoethane-hydrazide]			7.47	5.18	5.69	6.49	
NNC(=O)CNc1ccc(F)c(Cl)c1 [(4), 4-fluoro-3-chloro-phenylaminoethane-hydrazide]			7.72	5.62	6.26	6.85	
